Laboratory results: PubChem BioAssay (NCI)
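96-well plates; 48 h exposure; 5 concentrations. Endpoints by linear interpolation between flanking doses. Not reached: highest tested concentration assigned. TGI marks complete inhibition of growth.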

Tests used:
Test in all cases: NCI tumour cell line growth inhibition, 48 h
[1] = test system: 786-0 renal
[2] = test system: A498 renal
[3] = test system: A549 NSCLC
[4] = test system: ACHN renal
[5] = test system: BT-549 breast
[6] = test system: CAKI-1 renal
[7] = test system: CCRF-CEM leukemia
[8] = test system: COLO 205 colon
[9] = test system: DU-145 prostate
[10] = test system: HCC-2998 colon
[11] = test system: HCT-116 colon
[12] = test system: HCT-15 colon
[13] = test system: HL-60(TB) leukemia
[14] = test system: HOP-62 NSCLC
[15] = test system: HOP-92 NSCLC
[16] = test system: HS 578T breast
[17] = test system: HT29 colon
[18] = test system: IGROV1 ovarian
[19] = test system: K-562 leukemia
[20] = test system: KM12 colon
[21] = test system: LOX IMVI melanoma
[22] = test system: M14 melanoma
[23] = test system: MALME-3M melanoma
[24] = test system: MCF7 breast
[25] = test system: MDA-MB-231 breast
[26] = test system: MDA-MB-435
[27] = test system: MDA-N
[28] = test system: MOLT-4 leukemia
[29] = test system: NCI-H226 lung
[30] = test system: NCI-H23 lung
[31] = test system: NCI-H460 lung
[32] = test system: NCI-H522 lung
[33] = test system: NCI/ADR-RES ovarian
[34] = test system: OVCAR-3 ovarian
[35] = test system: OVCAR-4 ovarian
[36] = test system: OVCAR-5 ovarian
[37] = test system: OVCAR-8 ovarian
[38] = test system: PC-3 prostate
[39] = test system: RXF 393 renal
[40] = test system: SF-268 CNS
[41] = test system: SF-295 CNS
[42] = test system: SF-539 CNS
[43] = test system: SK-MEL-2 melanoma
[44] = test system: SK-MEL-28 melanoma
[45] = test system: SK-MEL-5 melanoma
[46] = test system: SK-OV-3 ovarian
[47] = test system: SN12C renal
[48] = test system: SNB-19 CNS
[49] = test system: SNB-75 CNS
[50] = test system: SR leukemia
[51] = test system: SW-620 colon
[52] = test system: T-47D breast
[53] = test system: TK-10 renal
[54] = test system: U251 CNS
[55] = test system: UACC-257 melanoma
[56] = test system: UACC-62 melanoma
[57] = test system: UO-31 renal
[58] = test system: EKVX NSCLC
[59] = test system: RPMI-8226 leukemia

O=c1n(-c2ccc(Cl)c(Cl)c2)c(=O)n(-c2ccc(Cl)c(Cl)c2)c(=O)n1-c1ccc(Cl)c(Cl)c1
TGI [1]: 7.84 µM
TGI [2]: 7.52 µM
TGI [3]: 6.37 µM
TGI [4]: 6.43 µM
TGI [5]: 8.49 µM
TGI [6]: 7.07 µM
TGI [7]: 4.5 µM
TGI [8]: 1.95 µM
TGI [9]: 12 µM
TGI [10]: > 46.7 µM
TGI [11]: 5.5 µM
TGI [12]: 6.98 µM
TGI [13]: > 24.2 µM
TGI [14]: 12.4 µM
TGI [15]: 2.37 µM
TGI [16]: 10 µM
TGI [17]: 10.9 µM
TGI [18]: 15 µM
TGI [19]: 9.05 µM
TGI [20]: 7.14 µM
TGI [21]: 7.16 µM
TGI [22]: 13.1 µM
TGI [23]: > 27.8 µM
TGI [24]: 5.03 µM
TGI [25]: 4.32 µM
TGI [26]: 16.5 µM
TGI [27]: 8.02 µM
TGI [28]: 4.6 µM
TGI [29]: 9.61 µM
TGI [30]: 4.91 µM
TGI [31]: 10.7 µM
TGI [32]: 11.5 µM
TGI [33]: 11.2 µM
TGI [34]: 13.5 µM
TGI [35]: 12.1 µM
TGI [36]: 8.91 µM
TGI [37]: 8.7 µM
TGI [38]: 4.72 µM
TGI [39]: 7.85 µM
TGI [40]: 6.69 µM
TGI [41]: 6.62 µM
TGI [42]: 2.77 µM
TGI [43]: 4.53 µM
TGI [44]: 15.1 µM
TGI [45]: 3.44 µM
TGI [46]: 3.16 µM
TGI [47]: > 31.6 µM
TGI [48]: 14.2 µM
TGI [49]: 7.75 µM
TGI [50]: 8.09 µM
TGI [51]: 10.2 µM
TGI [52]: 12.6 µM
TGI [53]: 17.3 µM
TGI [54]: 10.6 µM
TGI [55]: 5.73 µM
TGI [56]: 11.2 µM
TGI [57]: 9.73 µM

COc1nc(-c2c[nH]c3ccccc23)cnc1N
TGI [1]: 36.4 µM
TGI [2]: 38.5 µM
TGI [3]: > 100 µM
TGI [4]: > 100 µM
TGI [5]: > 100 µM
TGI [6]: > 100 µM
TGI [7]: 14.8 µM
TGI [8]: > 100 µM
TGI [9]: 70.1 µM
TGI [58]: 61.5 µM
TGI [10]: > 100 µM
TGI [11]: 55.7 µM
TGI [12]: > 100 µM
TGI [13]: 31.5 µM
TGI [14]: > 100 µM
TGI [15]: 23.9 µM
TGI [16]: 54.2 µM
TGI [17]: 46.2 µM
TGI [18]: > 100 µM
TGI [19]: > 100 µM
TGI [20]: > 100 µM
TGI [21]: > 100 µM
TGI [22]: 94.8 µM
TGI [24]: 84.1 µM
TGI [25]: 59.1 µM
TGI [26]: > 100 µM
TGI [27]: 48.9 µM
TGI [28]: 54.9 µM
TGI [31]: > 100 µM
TGI [33]: > 100 µM
TGI [34]: > 100 µM
TGI [35]: > 100 µM
TGI [36]: > 100 µM
TGI [37]: > 100 µM
TGI [38]: > 100 µM
TGI [59]: 39.6 µM
TGI [40]: > 100 µM
TGI [41]: > 100 µM
TGI [42]: > 100 µM
TGI [43]: 81.6 µM
TGI [44]: 64.6 µM
TGI [45]: > 100 µM
TGI [46]: > 100 µM
TGI [47]: 43.5 µM
TGI [48]: > 100 µM
TGI [50]: 41.1 µM
TGI [51]: > 100 µM
TGI [52]: 82.8 µM
TGI [53]: > 100 µM
TGI [54]: > 100 µM
TGI [55]: 51.7 µM
TGI [56]: 33.1 µM
TGI [57]: > 100 µM

COC(=O)C1=C(O)C(C(=O)OC)[C@@]2(O)[C@@H](C(=O)OC)C(c3ccc(OC(=O)/C=C/c4ccccc4)cc3)C[C@@H]1[C@@H]2C(=O)OC (some centres not stated)
TGI [1]: 42.5 µM
TGI [2]: > 100 µM
TGI [3]: > 100 µM
TGI [4]: > 100 µM
TGI [5]: 60.1 µM
TGI [6]: 73 µM
TGI [7]: > 100 µM
TGI [8]: 23.4 µM
TGI [9]: > 100 µM
TGI [58]: 37.7 µM
TGI [10]: 27.3 µM
TGI [11]: 17.8 µM
TGI [12]: 46.7 µM
TGI [13]: 32.6 µM
TGI [14]: > 100 µM
TGI [15]: > 100 µM
TGI [16]: > 100 µM
TGI [17]: 17 µM
TGI [18]: > 100 µM
TGI [19]: > 100 µM
TGI [20]: > 100 µM
TGI [21]: 5.75 µM
TGI [22]: 30.5 µM
TGI [23]: > 100 µM
TGI [24]: > 100 µM
TGI [25]: 63.6 µM
TGI [26]: > 100 µM
TGI [27]: 13.1 µM
TGI [29]: 60.1 µM
TGI [30]: > 100 µM
TGI [31]: 7.8 µM
TGI [32]: > 100 µM
TGI [33]: > 100 µM
TGI [34]: 94 µM
TGI [35]: > 100 µM
TGI [36]: 30.2 µM
TGI [37]: > 100 µM
TGI [38]: > 100 µM
TGI [39]: 19.1 µM
TGI [40]: > 100 µM
TGI [41]: > 100 µM
TGI [42]: 8.86 µM
TGI [43]: 21.9 µM
TGI [44]: > 100 µM
TGI [45]: 28.8 µM
TGI [46]: > 100 µM
TGI [47]: 27.3 µM
TGI [48]: > 100 µM
TGI [49]: > 100 µM
TGI [50]: 22.5 µM
TGI [51]: > 100 µM
TGI [52]: > 100 µM
TGI [53]: 33.6 µM
TGI [54]: 28.5 µM
TGI [55]: 25.4 µM
TGI [56]: 22.6 µM
TGI [57]: 25.5 µM
